Source: patent US20250115613A1, “DIARYL COMPOUND AS TUBULIN/SRC DUAL TARGET INHIBITOR” (Wuhan Humanwell Innovative Drug Research and Development …, priority 2022, published 2025)
Values after ≈ are worked out from the molar mass of the structure shown. Where two headings read alike, the source gives them in different places.

Experiments:
A-431 cells = experiment: Inhibition of A-431 cell proliferation; type: cell-based; settings: Homo sapiens, 96 h, incubated 4 days
Protocol: (§1) Human cutaneous squamous cell carcinoma cell A-431 (ATCC, CRL-1555) and actinic keratosis patient-derived cell HT 297.T (ATCC, CRL-7782) proliferation assays were used to detect the inhibitory effect of small molecular compounds on cell proliferation.
(§2) A-431 cells and HT 297.T cells were cultured in DMEM medium containing 10% fetal bovine serum and grown at 37° C. in a 5% CO2 incubator. Cells on logarithmic phase were seeded into a 96-well cell culture plate at 1000 cells/well, 100 μL per well, and then cultured overnight at 37° C. in a 5% CO2 incubator. The next day, 100 μL of gradient-diluted 2× test compound solution was added to each well, with DMSO serving as a positive control, and 10 μM staurosporine (Aladdin, S102392) was set as a negative control group. After the addition of the compounds, the culture plate was incubated for another 4 days at 37° C. in a 5% CO2 incubator. After incubation, the Steady-Glo® luciferase assay system (Promega, G9243) was used according to the supplier's instructions to measure the fluorescence signal value on the Envision 2104 Multilabel Reader. The inhibition rate was calculated by the following formula, then the curve was plotted with the Log value of the inhibitor concentration as the X-axis and the inhibition rate as the Y-axis, and the IC50 was calculated using Graphpad 8.0.
(§3) Inhibition %=(positive control group signal−test well signal)/(positive control group signal−negative control group signal)*100

[1] = Pharmacokinetic test in mice; type: in vivo; settings: mouse, plasma
Protocol: For the pharmacokinetic test in mice, 3 male ICR mice, 20 to 25 g, were used, fasted overnight, and administered by tail vein injection (1 mg/kg or 5 mg/kg). Blood was collected before the administration, and at 15 min, 30 min, 1 hour, 2 hours, 4 hours, 8 hours, and 24 hours after the administration. Another 3 mice were taken and administered by oral gavage (5 mg/kg), and blood was collected before the administration, and at 15 min, 30 min, 1 hour, 2 hours, 4 hours, 8 hours, and 24 hours after the administration. Blood samples were centrifuged at 6800 g at 2 to 8° C. for 6 min, and plasma was collected and stored at −80° C. The plasma at each time point was taken and added with an acetonitrile solution containing internal standard in 3 to 5 times the amount. The mixture was vortexed and mixed for 1 min, and centrifuged at 13,000 rpm at 4° C. for 10 min. The supernatant was collected, added with water in 3 times the amount, and mixed. An appropriate amount of the mixture was taken for LC-MS/MS analysis. The main pharmacokinetic parameters were analyzed using WinNonlin 7.0 software with non-compartmental model.

HT 297.T cells = experiment: Inhibition of HT 297.T cell proliferation; type: cell-based; settings: Homo sapiens, 96 h, incubated 4 days
Protocol: as §1, §2, §3

[2] = Human liver microsome stability test; type: in vitro ADME; settings: human liver microsomes (Corning), NADPH, 37° C.
Protocol: The human liver microsome stability test was performed by incubating the compound and human liver microsomes in vitro. First, the compound to be tested was prepared as a 10 mM stock solution in DMSO solvent, and then the compound was diluted to 0.5 mM with acetonitrile. Human liver microsomes (Corning) were diluted with PBS into a microsome/buffer solution, and the solution was used to dilute 0.5 mM compound into a working solution, in which the concentration of the compound was 1.5 μM, and the concentration of human liver microsomes was 0.75 mg/mL. A deep-well plate was taken, 30 μL of the working solution was added per well, and then 15 μL of pre-heated 6 mM NADPH solution was added thereto to initiate a reaction, and the reaction was incubated at 37° C. At 0 min, 5 min, 15 min, 30 min, and 45 min of the incubation, 135 μL of acetonitrile was added to the corresponding wells to terminate the reaction. After the reaction was terminated with acetonitrile at the last time point of 45 min, the deep-well plate was vortexed and shaken for 10 min (600 rpm), and then centrifuged for 15 min. After centrifugation, the supernatant was collected, and added with purified water in a ratio of 1:1 to perform LC-MS/MS detection. A ratio of a peak area of compound to a peak area of internal standard at each time point was obtained, and the peak area ratios of the compound at 5 min, 15 min, 30 min, and 45 min were compared with the peak area ratio at 0 min to calculate the remaining percentage of the compound at each time point. T1/2 was calculated by using Graphpad 5 software.

tubulin monomer = experiment: Inhibition test of tubulin monomer polymerization (Tubulin polymerization assay kit); type: biochemical; settings: maximum fluorescence signal of polymerization curve; 5 μL of 12.5 μM compound solution; 37° C.; higher value = lower inhibitory efficiency
Protocol: Tubulin polymerization assay kit (cytoskeleton, Cat. #BK011P) was used to conduct the compound inhibition test of tubulin monomer polymerization.
Before the test, the 96-well plate (Corning Costar, Cat. #3686) supplied with the kit was first placed in a microplate reader (MD, SpectraMax M5) and heated to 37° C., maintained for 10 minutes. The 96-well plate was then removed, and 5 μL of 12.5 μM compound solution or blank solution was added thereto. The 96-well plate was then placed back into the microplate reader and incubated at 37° C. for 1 minute to heat the compound solution to 37° C. The 96-well plate was removed and 50 μL of reaction mixture prepared according to the supplier's instructions was quickly added to each well, completing the sample addition within 1 minute to avoid the formation of bubbles. The 96-well plate was then immediately placed back into the microplate reader, shaken for 5 seconds, and using the Kinetic mode, continuous detection was carried out at 37° C. for 30 to 60 minutes under the conditions of excitation light at 360 nm and emission light at 420 nm, with detection every 30 seconds. Taking the detection time as the X-axis and the fluorescence signal value as the Y-axis, the tubulin monomer polymerization curve was obtained. As shown in FIG. 1 and Table 1, the larger the Vmax value and the higher the maximum fluorescence signal value of the polymerization curve, the lower the inhibitory efficiency of the compound.

[3] = Thermodynamic solubility test; type: physicochemical; settings: thermodynamic from solid
Protocol: Phosphate buffer saline (PBS) with a pH of 7.4, FeSSIF solution with a pH of 6.5, and FaSSGF solution with a pH of 1.6 were prepared. The compound was accurately weighed and added to prepared phosphate buffer saline with a pH of 7.4, FeSSIF solution with a pH of 6.5, and FaSSGF solution with a pH of 1.6 to prepare into a solution with a concentration of 4 mg/mL. The solution was shaken at a speed of 1000 rpm for 1 hour, and then incubated overnight at room temperature. The incubated solution was centrifuged at 12,000 rpm for 10 minutes to remove undissolved particles, and the supernatant was transferred to a new centrifuge tube. After the supernatant was appropriately diluted, an acetonitrile solution containing internal standard was added, and a standard curve prepared with the same matrix was used for quantification.

[4] = male ICR mice, intravenous injection 1 mg/kg
[5] = male ICR mice, intravenous injection 5 mg/kg
[6] = male, ICR, mice, oral gavage 5 mg/kg
[7] = FeSSIF solution, FeSSIF pH 6.5, incubated overnight at room temperature, read-out: Solubility FeSSIF (pH 6.5)
[8] = phosphate buffer saline (PBS), aqueous buffer, PBS pH 7.4, incubated overnight at room temperature, read-out: Solubility PBS (pH 7.4)

Q: Which IC50 (A-431 cells) does the source give for `O=C(Cc1ccc(-c2ccc(OCCN3C[C@H]4COC[C@H]4C3)cc2F)cn1)NCc1ccccc1` [Compound I-1, N-benzyl-2-(5-(2-fluoro-4-(2-((3aR,6aS)-tetrahydro-1H-furo[3,4-c]pyrrol-5(3H)-yl)ethoxy)phenyl)pyridin-2-yl)acetamide] here?
A: 0.0116 µM

Q: What about the AUC(0-t) [1, 4] of the same compound?
A: 299 ng·h/mL

Q: What about the clearance [1, 4] of the same compound?
A: 47.7 mL/min/kg

Q: For `O=C(Cc1ccc(-c2ccc(OCCN3CCS(=O)(=O)CC3)cc2)cn1)NCc1ccccc1` [Compound I-3, N-benzyl-2-(5-(4-(2-(1,1-dioxidothiomorpholino)ethoxy)phenyl)pyridin-2-yl)acetamide], which IC50 (A-431 cells) is on record?
A: 0.0143 µM

Q: Which IC50 (A-431 cells) does the source give for `O=C(Cc1ccc(-c2ccc(OCCN3CC4(COC4)C3)cc2F)cn1)NCc1ccccc1` [Compound I-4, 2-(5-(4-(2-(2-oxa-6-azaspiro[3.3]heptan-6-yl)ethoxy)-2-fluorophenyl)pyridin-2-yl)-N-benzylacetamide] here?
A: 0.00867 µM

Q: And the IC50 (HT 297.T cells)?
A: 0.0219 µM

Q: What about the half-life at 1 μM [2] of the same compound?
A: 47.5 min

Q: What does the source list for `Cc1cc(OCCN2CC3(COC3)C2)ccc1-c1ccc(CC(=O)NCc2ccccc2)nc1` [Compound I-5, 2-(5-(4-(2-(2-oxa-6-azaspiro[3.3]heptan-6-yl)ethoxy)-2-methylphenyl)pyridin-2-yl)-N-benzylacetamide]?
A: IC50 (A-431 cells): 0.0163 µM; AUC(0-t) [1, 5]: 2630 ng·h/mL; clearance [1, 5]: 32.7 mL/min/kg

Q: Which IC50 (A-431 cells) does the source give for `O=C(Cc1ccc(-c2ccc(OCCN3CC4(C3)CS(=O)(=O)C4)cc2)cn1)NCc1ccccc1` [Compound I-18, N-benzyl-2-(5-(4-(2-(2,2-dioxido-2-thia-6-azaspiro[3.3]heptan-6-yl)ethoxy)phenyl)pyridin-2-yl)acetamide] here?
A: 0.0223 µM

Q: For `C[C@H]1COCCN1CCOc1ccc(-c2ccc(CC(=O)NCc3ccccc3)nc2)c(F)c1` [Compound I-24A, (S)—N-benzyl-2-(5-(2-fluoro-4-(2-(3-methylmorpholino)ethoxy)phenyl)pyridin-2-yl)acetamide], which IC50 (A-431 cells) is on record?
A: 0.00674 µM

Q: What about the IC50 (HT 297.T cells) of the same compound?
A: 0.00813 µM

Q: And the AUC(0-t) [1, 6]?
A: 1090 ng·h/mL

Q: And the Cmax [1, 6]?
A: 1190 ng/mL

Q: And the AUC(0-t) [1, 5]?
A: 2520 ng·h/mL

Q: And the clearance [1, 5]?
A: 33.2 mL/min/kg

Q: Which results are given for `C[C@@H]1COCCN1CCOc1ccc(-c2ccc(CC(=O)NCc3ccccc3)nc2)c(F)c1` [Compound I-24B, (R)—N-benzyl-2-(5-(2-fluoro-4-(2-(3-methylmorpholino)ethoxy)phenyl)pyridin-2-yl)acetamide]?
A: Maximum signal value (tubulin monomer): 266; IC50 (A-431 cells): 0.00647 µM; IC50 (HT 297.T cells): 0.00851 µM; solubility [3, 7]: 69.8 µg/mL (≈ 150 µM); solubility [3, 8]: 11.3 µg/mL (≈ 24.4 µM); AUC(0-t) [1, 6]: 1420 ng·h/mL; Cmax [1, 6]: 1230 ng/mL; AUC(0-t) [1, 5]: 2780 ng·h/mL; clearance [1, 5]: 30.7 mL/min/kg; half-life at 1 μM [2]: 13.9 min

Q: What does the source list for `O=C(Cc1ccc(-c2ccc(OCCNC3CN(C(=O)CC4CC4)C3)cc2)cn1)NCc1ccccc1` [Compound I-26, N-benzyl-2-(5-(4-(2-((1-(2-cyclopropylacetyl)azetidin-3-yl)amino)ethoxy)phenyl)pyridin-2-yl)acetamide]?
A: Maximum signal value (tubulin monomer): 408; IC50 (A-431 cells): 0.0137 µM; solubility [3, 7]: 480 µg/mL (≈ 962 µM); solubility [3, 8]: 22.4 µg/mL (≈ 45 µM); half-life at 1 μM [2]: 42.8 min

Q: Which results are given for `N#Cc1cc(OCCN2CCOCC2)ccc1-c1ccc(CC(=O)NCc2ccccc2)nc1` [Compound I-27, N-benzyl-2-(5-(2-cyano-4-(2-morpholinoethoxy)phenyl)pyridin-2-yl)acetamide]?
A: Maximum signal value (tubulin monomer): 0; IC50 (A-431 cells): 0.0031 µM; solubility [3, 7]: 833 µg/mL (≈ 1830 µM); solubility [3, 8]: 85.7 µg/mL (≈ 188 µM)

Q: For `Cc1cc(OCCN2C[C@H]3COC[C@H]3C2)cc(C)c1-c1ccc(CC(=O)NCc2ccccc2)nc1` [Compound I-29, N-benzyl-2-(5-(2,6-dimethyl-4-(2-((3aR,6aS)-tetrahydro-1H-furo[3,4-c]pyrrol-5(3H)-yl)ethoxy)phenyl)pyridin-2-yl)acetamide], which IC50 (A-431 cells) is on record?
A: 0.0451 µM

Q: Which results are given for `O=C(Cc1ccc(-c2ccc(OCCN3C[C@H]4COC[C@H]4C3)cc2Cl)cn1)NCc1ccccc1` [Compound I-30, N-benzyl-2-(5-(2-chloro-4-(2-((3aR,6aS)-tetrahydro-1H-furo[3,4-c]pyrrol-5(3H)-yl)ethoxy)phenyl)pyridin-2-yl)acetamide]?
A: IC50 (A-431 cells): 0.00912 µM; AUC(0-t) [1, 6]: 508 ng·h/mL; Cmax [1, 6]: 364 ng/mL; AUC(0-t) [1, 5]: 852 ng·h/mL; clearance [1, 5]: 97.2 mL/min/kg; half-life at 1 μM [2]: 10.7 min

Q: With `C[C@@H]1COCCN1CCOc1ccc(-c2ccc(CC(=O)NCc3ccccc3F)nc2)c(F)c1` [Compound I-31, (R)-2-(5-(2-fluoro-4-(2-(3-methylmorpholino)ethoxy)phenyl)pyridin-2-yl)-N-(2-fluorobenzyl)acetamide] as the compound, how does the IC50 (A-431 cells) read?
A: 0.0109 µM

Q: For `C[C@H]1COCCN1CCOc1ccc(-c2ccc(CC(=O)NCc3ccccc3F)nc2)c(F)c1` [Compound I-32, (S)-2-(5-(2-fluoro-4-(2-(3-methylmorpholino)ethoxy)phenyl)pyridin-2-yl)-N-(2-fluorobenzyl)acetamide], which IC50 (A-431 cells) is on record?
A: 0.00922 µM

Q: Which IC50 (A-431 cells) does the source give for `Cc1cc(OCCN2C[C@H]3COC[C@H]3C2)ccc1-c1ccc(CC(=O)NCc2ccccc2F)nc1` [Compound I-33, N-(2-fluorobenzyl)-2-(5-(2-methyl-4-(2-((3aR,6aS)-tetrahydro-1H-furo[3,4-c]pyrrol-5(3H)-yl)ethoxy)phenyl)pyridin-2-yl)acetamide] here?
A: 0.0494 µM

Q: Which IC50 (A-431 cells) does the source give for `O=C(Cc1ccc(-c2ccc(OCCN3C[C@H]4COC[C@H]4C3)cc2Cl)cn1)NCc1ccccc1F` [Compound I-34, 2-(5-(2-chloro-4-(2-((3aR,6aS)-tetrahydro-1H-furo[3,4-c]pyrrol-5(3H)-yl)ethoxy)phenyl)pyridin-2-yl)-N-(2-fluorobenzyl)acetamide] here?
A: 0.0149 µM

Q: With `O=C(Cc1ccc(-c2ccc(OCCN3CCOCC3)cc2)cn1)NCc1ccccc1` [Control compound I, Tirbanibulin, reference compound] as the compound, how does the AUC(0-t) [1, 5] read?
A: 5250 ng·h/mL

Q: What about the clearance [1, 5] of the same compound?
A: 15.8 mL/min/kg
